Assay results reported in US20120141491A1, “METHODS AND COMPOSITIONS FOR THE TREATMENT OF CANCERS AND PATHOGENIC INFECTIONS” (priority 2009, published 2012).
Entries after “also recorded” stand apart in the source; their conditions may differ. Where two headings read alike, the source gives them in different places.

How the values were obtained:
Format in all cases: cell-based
[1] = test system: Saos-2 osteosarcoma cells expressing GFP-LC3; test: Autophagy response by punctate localization of GFP-LC3 to autophagic vacuoles, fluorescence microscopy; details: for Activate Autophagy Response: Table 1; for Induction of autophagy: Table 2; for Enhancement of autophagy (GFP-LC3 at autophagic vacuoles) / Stimulation of autophagy compared with amino acid and serum starved cells (FIG. 2G): enriched (Fed) medium; for Stimulation of autophagy compared with amino acid and serum starved cells (FIG. 2G): 100 μM
Procedure: FIGS. 2A-2G. Activation of autophagy by Bcl-XL targeting compounds. The positions of C2 in Site 1 (FIG. 2A), C5 in Site 1 (FIG. 2B), and C8 in Site 2 (FIG. 2C) of Bcl-xl are shown by in silico molecular docking. Saos-2 osteosarcoma cells expressing GFP-LC3 were incubated in enriched (Fed) medium in the presence of C2 (FIG. 2D), C5 (FIG. 2E) and C8 (FIG. 2F) Bcl-targeted compounds. GFP-LC3 is found diffuse throughout the cytosol and nucleus when autophagy is suppressed. Ongoing autophagy can be visualized by the presence of GFP-LC3 at autophagic vacuoles (AVs) that appear as dots (arrows). […] In FIG. 2E, Saos-2 osteosarcoma cells expressing GFP-LC3 were incubated in enriched (Fed) medium in the absence and presence of Bcl-targeted compounds or in medium lacking amino acids and serum (Starved).
FIG. 4A-4F. Activation of autophagy by Bcl-targeted compounds. The localization of GFP-LC3 to autophagic vacuoles was enhanced by […] Bcl-targeted compounds in Saos-2 osteosarcoma cells. The autophagy response in fed Saos2 cells was measured in the absence and presence of anti-Bcl compounds by visualizing the punctate localization of GFP-LC3 (FIGS. 4A-4C) and RFP-GFP-LC3 (FIGS. 4D-4F) to autophagic vacuoles. In untreated fed cells, the GFP-LC3 is localized uniformly throughout the cell. […] Autophagy in cells expressing RFP-GFP-LC3 (FIGS. 4D-4F) was activated with compound B2-1. Structures containing RFP (red, FIG. 4D) and GFP (green, FIG. 4E) are autophagosomes (arrow), while RFP (red, FIG. 4D) structures are autolysosomes (arrowhead).
(§1) FIGS. 5A-5C. Characterization of proBeclin 1 compounds. Upon ranking 100 NCl compounds by in silico docking to Bcl-xl, the autophagy responses were evaluated in fed Saos-2 cells expressing GFP-LC3 (FIG. 5A). […] Cells were maintained in nutrient-rich medium in the absence and presence of Bcl-targeted compounds for 4 hr. The cells were then solubilized, Beclin 1 complex immunoprecipitated, and the Beclin 1 hound proteins identified by Western blotting (FIG. 5C). The IgG-LC is the immunoglobin light chain of the anti-Beclin 1 antibody that was used to immunoprecipitate the complex. The absence of Bcl-xl is indicative of an inhibition of Beclin 1 binding.
This was done in Saos-2 osteosarcoma cells stably expressing the autophagosome marker, GFP-LC3. In fed cells not undergoing autophagy GFP-LC3 is a soluble protein found throughout the cytosol. In amino acid and serum starved cells, autophagy is activated and GFP-LC3 becomes associated with autophagic vacuoles that can be visualize by fluorescence microscopy.
(§2) When autophagy is suppressed, GFP-LC3 distributes uniformly throughout the cellular cytoplasm (FIG. 4A). Autophagy response can be observed by visualizing the punctuate pattern of GFP-LC3 indicative of the presence of autophagic vacuoles. We can also use tandem-labeled LC3, RFP-GFP-LC3 to better assess the dynamics of the autophagy response by visualizing both autophagosomes and autolysosomes (FIG. 4D-4F). […] To further substantiate that the accumulation of GFP-LC3 structures is not due to a blockage of basal autophagy but the positive effects of the compounds on the autophagy response, the autophagy response is validated by quantitative protein turnover measures using radiolabeled amino acids (FIG. 5B). Finally, we determine whether the compound interferes with Beclin 1 binding to Bcl-xl (FIG. 5C) and Bcl-2 as we would suspect if the compound acts through the intended novel mechanism of action.

[2] = test system: Beclin 1/Bcl binding; test: Beclin 1/Bcl binding by immunoprecipitation with anti-Beclin 1 antibodies and Western blotting; details: for Inhibit Beclin 1 Binding: Table 1; for Beclin 1 binding to Bcl-xl / Bcl proteins: nutrient-rich medium, 4 hr
From the text: FIGS. 5A-5C. Characterization of proBeclin 1 compounds. […] Cells were maintained in nutrient-rich medium in the absence and presence of Bcl-targeted compounds for 4 hr. The cells were then solubilized, Beclin 1 complex immunoprecipitated, and the Beclin 1 hound proteins identified by Western blotting (FIG. 5C). The IgG-LC is the immunoglobin light chain of the anti-Beclin 1 antibody that was used to immunoprecipitate the complex.
Autophagy response can be observed by visualizing the punctuate pattern of GFP-LC3 indicative of the presence of autophagic vacuoles. We can also use tandem-labeled LC3, RFP-GFP-LC3 to better assess the dynamics of the autophagy response by visualizing both autophagosomes and autolysosomes (FIG. 4D-4F). […] Finally, we determine whether the compound interferes with Beclin 1 binding to Bcl-xl (FIG. 5C) and Bcl-2 as we would suspect if the compound acts through the intended novel mechanism of action.

[3] = test system: protein degradation; test: Protein degradation by pulse-chase methods using 14C-valine; details: for Rates of protein degradation (FIG. 5B): 14C-valine pulse-chase, compared to a control compound, n=6; for Stimulate Protein Degradation: Table 1; for Proteolysis, bar coding of FIG. 5A: black bar stimulated, striped bar inhibited
Procedure: as §1, §2

[4] = test system: NeuT cells
Procedure: FIGS. 3A-3E. Effects of Bcl-XL targeted small compounds on the autophagy response and cell survival in NeuT cells. The positions of C4 in Site 1 (FIG. 3A), and C9 in Site 2 (FIG. 3B) of Bcl-xl are shown by in silico molecular docking. NeuT (Her2-positive breast cancer cell line) cells expressing GFP-LC3 were incubated in enriched (Fed) medium in the presence of C4 (FIG. 3C) and C9 (FIG. 3D) Bcl-targeted compounds. GFP-LC3 is found on autophagic vacuole that appear as dots (arrows). In FIG. 3E, the survival of NeuT cells was quantified after 20h of treatment with 0.1-1000 μM of Site 1 (C2 and C4) and Site 2 (C7 and C9) compounds.
Cell survival is suppressed by Bcl2-targeted compounds: Next, we examined the effects of the Bcl-xl targeted compounds C2, C4, C7, and C9 on autophagy and cell death in Her2/Neu-positive NeuT breast carcinoma cells (FIGS. 3A-E).

| Compound | Activate Autophagy Response [1] | Induction of autophagy [1] | Enhancement of autophagy (GFP-LC3 at autophagic vacuoles) [1] | Inhibit Beclin 1 Binding [2] | Stimulate Protein Degradation [3] | also measured |
| --- | --- | --- | --- | --- | --- | --- |
| O=C(O)CCn1c(=O)[nH]c(=O)n(CCC(=O)O)c1=O [NSC11693] | Yes | NSC 11693 Induces autophagy; not tested for the induction of cell death | – | – | – | – |
| CN(C)CCNNC1CCCN(C)C1 (stereo not drawn) [NSC21689] | Yes | – | activate autophagy | No | Yes | Beclin 1 binding to Bcl-xl / Bcl proteins ([2]; listed as Bx-16): did not; also recorded: do not appear to affect Beclin 1 binding; also recorded: does not inhibit Beclin 1 binding as well as Bx-8; Rates of protein degradation (FIG. 5B) [3]: activate |
| C1CC2NCCC3NCCC(N1)N32 (stereo not drawn) [NSC81462, Dodecahydro-1,4,7,9b-tetraazaphenalene] | Yes | – | stimulate autophagy | Yes | Yes | Beclin 1 binding to Bcl-xl / Bcl proteins ([2]; listed as Bx-8): inhibited Beclin 1 binding; also recorded: inhibiting Beclin 1 binding; Rates of protein degradation (FIG. 5B) ([3]; listed as Bx-8): elevated; also recorded: stimulate; Proteolysis, bar coding of FIG. 5A [3]: stimulated proteolysis |
| O=C1/C(=N\Nc2cc(Cl)ccc2O)C(S(=O)(=O)O)=Cc2cc(S(=O)(=O)O)cc(O)c21 [NSC100234, (3E)-3-[(5-chloro-2-hydroxyphenyl)hydrazinyleidene]-5-hydroxy-4-oxonapthalene-2,7-disulfonic acid] | Yes | – | stimulate autophagy | Yes | Yes | Beclin 1 binding to Bcl-xl / Bcl proteins [2]: inhibiting Beclin 1 binding; Rates of protein degradation (FIG. 5B) [3]: stimulate |
| O=C(c1ccc(Cl)cc1)C(C(c1ccc([N+](=O)[O-])cc1)N1CCCCC1)N1CCCCC1 (stereo not drawn) [NSC150193, 1-(4-chlorophenyl)-3-(4-nitrophenyl)-2,3-di(piperidin-1-yl)propan-1-one] | Yes | NSC 150193 Induces autophagy; not tested for the induction of cell death | stimulate autophagy | Yes | Yes | Beclin 1 binding to Bcl-xl / Bcl proteins [2]: inhibiting Beclin 1 binding; Rates of protein degradation (FIG. 5B) ([3]; listed as B2-7): elevated; also recorded: stimulate; Proteolysis, bar coding of FIG. 5A [3]: stimulated proteolysis |
| Clc1cc(Cl)c(C[N+]23CN4CN(CN(C4)C2)C3)cc1Cl.[Cl-] [NSC155877, 3,5,7-Triaza-1-axoniaadamantane, 1-(2,4,5-trichlorobenzyl)-, chloride] | Yes | – | – | No | – | – |
| OC(CCl)CN1CC[N+]2(CC1)CC[N+]1(CCN(CC(O)CCl)CC1)CC2.[Cl-].[Cl-] (stereo not drawn) [NSC166100, 3,12-Bis(3-chloro-2-hydroxypropyl)-3,12-diaza-6,9-diazoniadispiro[5.2.5.2]hexadecane dichloride] | Yes | Induces | – | No | – | Stimulation of autophagy compared with amino acid and serum starved cells (FIG. 2G) [1]: promote autophagy |
| CN(C)CC(CN1c2ccccc2Sc2ccccc21)N(C)C (stereo not drawn) [NSC169468] | Yes | NSC 169468 Induces autophagy; not tested for the induction of cell death | – | – | – | Stimulation of autophagy compared with amino acid and serum starved cells (FIG. 2G) [1]: stimulated autophagy to levels seen in amino acid and serum starved cells |
| CC1CC(C)(C)NCCNC(C)CC(C)(C)NCCN1 (stereo not drawn) [NSC175445, 5,5,7,12,12,14-hexamethyl-1,4,8,11-tetrazacyclotetradecane] | Yes | NSC 175445 Induces autophagy; not tested for the induction of cell death | stimulate autophagy | Yes | – | Beclin 1 binding to Bcl-xl / Bcl proteins ([2]; listed as B2-11): inhibited Beclin 1 binding; also recorded: interfere with Beclin 1 binding; Proteolysis, bar coding of FIG. 5A [3]: stimulated proteolysis |
| CC(=O)C1=C(O)C2(C)c3c(O)c(C)c(O)c(C(C)=O)c3OC2CC1=O (stereo not drawn) [NSC280057] | Yes | Induces autophagy | – | No | – | Stimulation of autophagy compared with amino acid and serum starved cells (FIG. 2G) ([1]; listed as C10): promote autophagy; also recorded: stimulated autophagy to levels seen in amino acid and serum starved cells; Induction of cell death ([4]; Table 2, cells not given): causes cell death |
| CN1CCN(CCSC2Cc3cc(Cl)ccc3Sc3ccccc32)CC1 (stereo not drawn) [NSC635366] | Yes | Induces autophagy | – | – | No | Stimulation of autophagy compared with amino acid and serum starved cells (FIG. 2G) ([1]; listed as C8): promote autophagy; also recorded: stimulated autophagy to levels seen in amino acid and serum starved cells; Enhancement of autophagy (GFP-LC3 at autophagic vacuoles) ([1]; listed as Bx19): promote the accumulation of autophagic vacuoles; Enhancement of autophagy (GFP-LC3 at autophagic vacuoles) ([1]; listed as C8): enhanced autophagy; Induction of cell death [4]: causes cell death; Rates of protein degradation (FIG. 5B) [3]: inhibit protein degradation |
| Cl.NC(CSSCC(N)Cc1ccccc1)Cc1ccccc1 (stereo not drawn) [NSC656252] | Yes | Induces autophagy | – | – | – | Induction of cell death ([4]; Table 2, cells not given): causes cell death |
